According to patent US20260324639A1, “MICROBIOCIDAL PYRAZOLE DERIVATIVES” (SYNGENTA CROP PROTECTION AG, priority 2022, published 2026):

How the values were obtained:
Botryotinia fuckeliana = Botryotinia fuckeliana (Botrytis cinerea)/liquid culture (gray mould); format: cell-based; details: liquid culture, Vogels broth, 24° C., growth inhibition photometric 3-4 days after application, read-out: control of Botryotinia fuckeliana compared to untreated control
Procedure: (§1) Conidia of the fungus from cryogenic storage are directly mixed into nutrient broth (Vogels broth). After placing a (DMSO) solution of test compound into a microtiter plate (96-well format), the nutrient broth containing the fungal spores is added. The test plates are incubated at 24° C. and the inhibition of growth is determined photometrically 3-4 days after application.

[1] = test system: Blumeria graminis f. sp. tritici; assay: Blumeria graminis f. sp. tritici/wheat/leaf disc preventative (powdery mildew on wheat); format: in vivo; details: 200 ppm, wheat leaf segments cv. Kanzler, inoculated 1 day after application, assessed 6-8 days after application
Procedure: Wheat leaf segments cv. Kanzler are placed on agar in a multiwell plate (24-well format) and sprayed with the formulated test compound diluted in water. The leaf disks are inoculated by shaking powdery mildew infected plants above the test plates 1 day after application. The inoculated leaf disks are incubated at 20° C. and 60% rh under a light regime of 24 h darkness followed by 12 h light/12 h darkness in a climate chamber and the activity of a compound is assessed as percent disease control compared to untreated when an appropriate level of disease damage appears on untreated check leaf segments (6-8 days after application).

Phaeosphaeria nodorum = Phaeosphaeria nodorum (Septoria nodorum)/wheat/leaf disc preventative (glume blotch); format: in vivo; details: 200 ppm, wheat leaf segments cv. Kanzler, inoculated 2 days after application, assessed 5-7 days after application
Procedure: (§2) Wheat leaf segments cv. Kanzler are placed on agar in a multiwell plate (24-well format) and sprayed with the formulated test compound diluted in water. The leaf disks are inoculated with a spore suspension of the fungus 2 days after application. The inoculated test leaf disks are incubated at 20° C. and 75% rh under a light regime of 12 h light/12 h darkness in a climate cabinet and the activity of a compound is assessed as percent disease control compared to untreated when an appropriate level of disease damage appears in untreated check leaf disks (5-7 days after application).

Monographella nivalis = Monographella nivalis (Microdochium nivale)/liquid culture (foot rot cereals); format: cell-based; details: liquid culture, PDB, 24° C., growth inhibition photometric 4-5 days after application, read-out: control of Monographella nivalis compared to untreated control
Procedure: as §1, with “(PDB potato dextrose” for “(Vogels”, “4-5” for “3-4”

Mycosphaerella arachidis = Mycosphaerella arachidis (Cercospora arachidicola)/liquid culture (early leaf spot); format: cell-based; details: liquid culture, PDB, 24° C., growth inhibition photometric 4-5 days after application, read-out: control of Mycosphaerella arachidis compared to untreated control
Procedure: as §1, with “(PDB potato dextrose” for “(Vogels”, “4-5” for “3-4”

[2] = test system: Puccinia recondita f. sp. tritici; assay: Puccinia recondita f. sp. tritici/wheat/leaf disc preventative (brown rust); format: in vivo; details: 200 ppm, inoculated 1 day after application, wheat leaf segments cv. Kanzler, assessed 7-9 days after application
Procedure: Wheat leaf segments cv. Kanzler are placed on agar in multiwell plates (24-well format) and sprayed with the formulated test compound diluted in water. The leaf disks are inoculated with a spore suspension of the fungus 1 day after application. The inoculated leaf segments are incubated at 19° C. and 75% rh under a light regime of 12 h light/12 h darkness in a climate cabinet and the activity of a compound is assessed as percent disease control compared to untreated when an appropriate level of disease damage appears in untreated check leaf segments (7-9 days after application).

Pyrenophora teres = assay: Pyrenophora teres/barley/leaf disc preventative (net blotch); format: in vivo; details: 200 ppm, barley leaf segments cv. Hasso, inoculated 2 days after application, assessed 5-7 days after application
Procedure: as §2, with “Barley” for “Wheat”, “Hasso” for “Kanzler”, “segments” for “disks”, “inoculated” for “inoculated test”, “65%” for “75%”, “as” for “as percent”

[3] = test system: Mycosphaerella graminicola; assay: Mycosphaerella graminicola (Septoria tritici)/liquid culture (Septoria blotch); format: cell-based; details: Zymoseptoria tritici, liquid culture, PDB, 24° C., growth inhibition photometric 4-5 days after application, read-out: control of Mycosphaerella graminicola compared to untreated control
Procedure: as §1, with “(PDB potato dextrose” for “(Vogels”, “4-5” for “3-4”

Alternaria solani = assay: Alternaria solani/tomato/leaf disc (early blight); format: in vivo; details: 200 ppm; tomato leaf disks cv. Baby; inoculated 2 days after application; assessed 5-7 days after application
Procedure: Tomato leaf disks cv. Baby are placed on agar in multiwell plates (24-well format) and sprayed with the formulated test compound diluted in water. The leaf disks are inoculated with a spore suspension of the fungus 2 days after application. The inoculated leaf disks are incubated at 23° C./21° C. (day/night) and 80% rh under a light regime of 12/12 h (light/dark) in a climate cabinet and the activity of a compound is assessed as percent disease control compared to untreated when an appropriate level of disease damage appears on untreated check disk leaf disks (5-7 days after application).

Glomerella lagenarium = Glomerella lagenarium (Colletotrichum lagenarium)/liquid culture (anthracnose); format: cell-based; details: Colletotrichum orbiculare, liquid culture, PDB, 24° C., growth inhibition photometric 3-4 days after application, read-out: control of Glomerella lagenarium compared to untreated control
Procedure: as §1, with “(PDB potato dextrose” for “(Vogels”, “measured” for “determined”

Fusarium culmorum = assay: microbe, parasite or virus in culture; format: cell-based; details: read-out: control of Fusarium culmorum compared to untreated control
Procedure: as §1, with “(PDB potato dextrose” for “(Vogels”

Sclerotinia sclerotiorum = assay: Sclerotinia sclerotiorum/liquid culture (cottony rot); format: cell-based; details: liquid culture (mycelia fragments), PDB, 24° C., growth inhibition photometric 3-4 days after application, read-out: control of Sclerotinia sclerotiorum compared to untreated control
Procedure: as §1, with “Mycelia fragments of a newly grown liquid culture” for “Conidia”, “fungus” for “fungus from cryogenic storage”, “(PDB potato dextrose” for “(Vogels”, “format)” for “format),”, “material” for “spores”

| Structure (SMILES) | inhibition of growth at 20 ppm (Botryotinia fuckeliana) [%] | control of Blumeria graminis f. sp. tritici compared to untreated control [1] | control of Phaeosphaeria nodorum compared to untreated control (Phaeosphaeria nodorum) | inhibition of growth at 20 ppm (Monographella nivalis) [%] | inhibition of growth at 20 ppm (Mycosphaerella arachidis) [%] | control of Puccinia recondita f. sp. tritici compared to untreated control [2] | control of Pyrenophora teres compared to untreated control (Pyrenophora teres) | inhibition of growth at 20 ppm [3] [%] | control of Alternaria solani compared to untreated control (Alternaria solani) | inhibition of growth at 20 ppm (Glomerella lagenarium) [%] | inhibition of growth at 20 ppm (Fusarium culmorum) [%] | inhibition of growth at 20 ppm (Sclerotinia sclerotiorum) [%] |
| --- | --- | --- | --- | --- | --- | --- | --- | --- | --- | --- | --- | --- |
| COc1ccc2c(c1)[C@@H](c1cnn(C)c1)CN(C(=O)c1nnn(-c3ccccc3)n1)[C@H]2C (single isomer, unassigned) [Compound P-37] | ≥ 80 | at least 80% | at least 80% | ≥ 80 | ≥ 80 | at least 80% | at least 80% | ≥ 80 | – | – | – | – |
| Cc1c([C@H]2CN(C(=O)c3cn(-c4ncc(F)cc4F)nn3)[C@@H](C)c3ccccc32)cnn1C [Compound P-43, [1-(3,5-difluoro-2-pyridyl)triazol-4-yl]-[(1S,4S)-4-(1,5-dimethylpyrazol-4-yl)-1-methyl-3,4-dihydro-1H-isoquinolin-2-yl]methanone] | ≥ 80 | at least 80% | at least 80% | ≥ 80 | ≥ 80 | – | at least 80% | ≥ 80 | at least 80% | ≥ 80 | ≥ 80 | – |
| Cc1c(C2CN(C(=O)c3cn(-c4ccc(F)cc4F)nn3)Cc3ccccc32)cnn1C (stereo not shown) [Compound P-56, [1-(2,4-difluorophenyl)triazol-4-yl]-[4-(1,5-dimethylpyrazol-4-yl)-3,4-dihydro-1H-isoquinolin-2-yl]methanone] | ≥ 80 | at least 80% | at least 80% | ≥ 80 | ≥ 80 | – | at least 80% | ≥ 80 | at least 80% | ≥ 80 | – | – |
| C[C@H]1c2ccccc2[C@@H](c2cnn(C)c2Cl)CN1C(=O)c1nnn(-c2ccc(F)cc2F)n1 [Compound P-49, [(1S,4S)-4-(5-chloro-1-methyl-pyrazol-4-yl)-1-methyl-3,4-dihydro-1H-isoquinolin-2-yl]-[2-(2,4-difluorophenyl)tetrazol-5-yl]methanone] | ≥ 80 | at least 80% | at least 80% | ≥ 80 | ≥ 80 | at least 80% | at least 80% | ≥ 80 | at least 80% | ≥ 80 | – | – |
| C[C@H]1c2ccccc2[C@@H](c2cnn(C)c2Cl)CN1C(=O)c1cn(-c2ccc(F)cc2F)nn1 [Compound P-48, [(1S,4S)-4-(5-chloro-1-methyl-pyrazol-4-yl)-1-methyl-3,4-dihydro-1H-isoquinolin-2-yl]-[1-(2,4-difluorophenyl)triazol-4-yl]methanone] | ≥ 80 | at least 80% | at least 80% | ≥ 80 | ≥ 80 | – | at least 80% | ≥ 80 | at least 80% | ≥ 80 | ≥ 80 | ≥ 80 |
| C[C@H]1c2ccccc2[C@@H](c2cnn(C)c2Cl)CN1C(=O)c1cn(-c2ncc(F)cc2F)nn1 (racemic) [Compound P-53, [1-(3,5-difluoro-2-pyridyl)triazol-4-yl]-[rac-(1S,4S)-4-(5-chloro-1-methyl-pyrazol-4-yl)-1-methyl-3,4-dihydro-1H-isoquinolin-2-yl]methanone] | ≥ 80 | at least 80% | at least 80% | ≥ 80 | ≥ 80 | – | at least 80% | ≥ 80 | at least 80% | ≥ 80 | ≥ 80 | – |
| C[C@H]1c2ccccc2[C@@H](c2cnn(C)c2)CN1C(=O)c1cn(-c2ncc(F)cc2F)nn1 [Compound P-51, [1-(3,5-difluoro-2-pyridyl)triazol-4-yl]-[(1S,4S)-1-methyl-4-(1-methylpyrazol-4-yl)-3,4-dihydro-1H-isoquinolin-2-yl]methanone] | ≥ 80 | at least 80% | at least 80% | ≥ 80 | ≥ 80 | – | at least 80% | ≥ 80 | at least 80% | ≥ 80 | – | – |
